The values that follow are results of earlier work, collected in patent publication US6924311B2, “Methods for affecting various diseases utilizing LXR compounds” (X-Ceptor Therapeutics, Inc., priority 2001, dated 2005).

For the series the following is noted: db/db mice, known anti-diabetic RXR agonist, positive control; cited from earlier work.

Consider `CC1(C)CCC(C)(C)c2cc(C3(c4ccc(C(=O)O)cn4)CC3)c(F)cc21` [Compound 2, 6-[1-(3-Fluoro-5,5,8,8-tetramethyl-5,6,7,8-tetrahydro-napthalen-2-yl)-cyclopropyl]-nicotinic acid], for which the “effect on blood glucose levels” value was “effectively lower blood glucose levels in db/db mice”.
